According to patent US9221809B2 (MERCK SHARP & DOHME CORP., priority 2011, dated 2015):
Structures can show the parent of a compound that is named as a salt. Where two headings read alike, the source gives them in different places.

Molecular target: IRAK4 (Homo sapiens (Human), UniProt Q9NWZ3)
Assay: IRAK4 kinase activity, IMAP fluorescence polarization assay
Type: biochemical
Details: 100 μM ATP
Summary of the method: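 Fluorescence polarization (IMAP nanoparticle binding of phosphopeptide) reports activity after a 30 min, 25 °C reaction. Conditions: 100 μM ATP, 0.5 nM GST-IRAK4, 100 nM fluorescent peptide, 10 mM Tris pH 7.2, 1 mM MgCl2, 1 mM DTT, 0.01% Tween 20.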

[1] = 0.5 nM GST tagged IRAK4, read-out: IRAK4 IC50

IRAK4, sequence (Q9NWZ3 whole entry): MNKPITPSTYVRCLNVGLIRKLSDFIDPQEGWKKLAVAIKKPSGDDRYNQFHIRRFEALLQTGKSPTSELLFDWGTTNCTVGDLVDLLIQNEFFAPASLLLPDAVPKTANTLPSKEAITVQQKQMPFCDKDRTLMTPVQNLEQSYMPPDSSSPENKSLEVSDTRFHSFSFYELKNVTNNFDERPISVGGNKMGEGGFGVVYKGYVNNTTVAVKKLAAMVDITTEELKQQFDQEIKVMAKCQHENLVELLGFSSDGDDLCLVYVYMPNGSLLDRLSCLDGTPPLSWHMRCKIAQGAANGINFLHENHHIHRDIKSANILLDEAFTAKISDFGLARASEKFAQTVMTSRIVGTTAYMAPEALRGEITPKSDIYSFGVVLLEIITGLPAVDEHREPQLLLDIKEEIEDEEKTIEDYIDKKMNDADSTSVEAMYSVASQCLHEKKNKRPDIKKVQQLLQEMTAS

IC50 [1]	Compound	other results
114 nM	C[C@@H]1CC[C@@H](Nc2nc(N3CCOCC3)[nH]c(=O)c2-c2nc3ccccc3s2)CN1 (racemic) [Example 124, 5-(benzo[d]thiazol-2-yl)-6((6-methylpiperidin-3-yl)amino)-2-morpholinopyrimidin-4(3H)-one.HCl]	–
354 nM	CN1CCC[C@@H](Nc2nc(N3CCOCC3)[nH]c(=O)c2-c2nc3ccccc3s2)C1 [Example 95, (R)-5-(Benzo[d]thiazol-2-yl)-6-(1-methylpiperidin-3-ylamino)-2-morpholinopyrimidin-4(3H)-one.HCl]	–
1270 nM	Cc1cnc(-c2c(N[C@@H]3CCCNC3)nc(N3CCOCC3)[nH]c2=O)s1 [Example 102, (R)-5-(5-methylthiazol-2-yl)-2-morpholino-6-(piperidin-3-ylamino)pyrimidin-4(3H)-one.HCl]	–
2.5 nM	O=c1[nH]c(NC2CCC2)nc(N[C@@H]2C[C@H](CO)[C@@H](O)[C@H]2O)c1-c1nc2cnccc2s1 [Example 55, 2-(Cyclobutylamino)-6-((1R,2S,3R,4R)-2,3-dihydroxy-4-(hydroxymethyl)cyclopentylamino)-5-(thiazolo[4,5-c]pyridin-2-yl)pyrimidin-4(3H)-one.HCl]	–
284 nM	O=c1[nH]c(Nc2ccc(F)cc2)nc(N[C@@H]2C[C@H](CO)[C@@H](O)[C@H]2O)c1-c1nc2ccccc2s1 [Example 52, 5-(Benzo[d]thiazol-2-yl)-6-((1R,2S,3R,4R)-2,3-dihydroxy-4-(hydroxymethyl)cyclopentylamino)-2-(4-fluorophenylamino)pyrimidin-4(3H)-one.HCl]	–
5330 nM	O=c1[nH]c(NC2CCC2)nc(NC[C@H](O)CO)c1-c1nc2ccccc2s1 [Example 49, (S)-5-(Benzo[d]thiazol-2-yl)-2-(cyclobutylamino)-6-(2,3-dihydroxypropylamino)pyrimidin-4(3H)-one.HCl]	–
1160 nM	CCc1nc(N[C@@H]2C[C@H](CO)[C@@H](O)[C@H]2O)c(-c2nc3ccccc3s2)c(=O)[nH]1 [Example 61, 5-(Benzo[d]thiazol-2-yl)-6-((1R,2S,3R,4R)-2,3-dihydroxy-4-(hydroxymethyl)cyclopentylamino)-2-ethylpyrimidin-4(3H)-one.HCl]	–
459 nM	C[C@@]1(O)[C@H](O)[C@@H](CO)C[C@H]1Nc1nc(NC2CCC2)[nH]c(=O)c1-c1nc2ccccc2s1 [Example 41, 5-(Benzo[d]thiazol-2-yl)-2-(cyclobutylamino)-6-((1R,2S,3R,4R)-2,3-dihydroxy-4-(hydroxymethyl)-2-methylcyclopentylamino)pyrimidin-4(3H)-one.HCl]	–

Continued, molecule first:

Compound	IC50 [1]	other results
CN(C)c1nc(N[C@@H]2C[C@H](CO)[C@@H](O)[C@H]2O)c(-c2nc3ccccc3s2)c(=O)[nH]1 [Example 30, 5-(Benzo[d]thiazol-2-yl)-6-(((1R,2S,3R,4R)-2,3-dihydroxy-4-(hydroxymethyl)cyclopentyl)amino)-2-(dimethylamino)pyrimidin-4(3H)-one.HCl]	542 nM	–
O=c1[nH]c(N2CCN(c3ncccn3)CC2)nc(N[C@@H]2CCCNC2)c1-c1nc2ccccc2s1 [Example 136, (R)-5-(benzo[d]thiazol-2-yl)-6-(piperidin-3-ylamino)-2-(4-(pyrimidin-2-yl)piperazin-1-yl)pyrimidin-4(3H)-one]	–	IC50 (read-out: IRAK4 IC50): 10 nM
C[C@H]1CC[C@@H](Nc2nc(N3CCOCC3)[nH]c(=O)c2-c2ccc3ccccc3n2)CN1 (racemic) [Example 122, 6-(methylpiperidin-3-yl)amino-2-morpholino-5-(quinolin-2-yl)pyrimidin-4(3H)-one.HCl]	541 nM	–
Cc1csc(-c2c(N[C@@H]3C[C@H](CO)[C@@H](O)[C@H]3O)nc(N3CCC(C(F)(F)F)CC3)[nH]c2=O)n1 [Example 33, 6-(((1R,2S,3R,4R)-2,3-Dihydroxy-4-(hydroxymethyl)cyclopentyl)amino)-5-(4-methylthiazol-2-yl)-2-(4-(trifluoromethyl)piperidin-1-yl)pyrimidin-4(3H)-one.HCl]	93.6 nM	–
O=c1[nH]c(N2CCOCC2)nc(NC2CCCCNC2)c1-c1nc2ccccc2s1 (stereo not drawn) [Example 92, 6-(Azepan-3-ylamino)-5-(benzo[d]thiazol-2-yl)-2-morpholinopyrimidin-4(3H)-one.HCl]	27 nM	–
CS(=O)(=O)N1CC2(CN(c3nc(N[C@@H]4C[C@H](CO)[C@@H](O)[C@H]4O)c(-c4nc5ccccc5s4)c(=O)[nH]3)C2)C1 [Example 14, 5-(Benzo[d]thiazol-2-yl)-6-((1R,2S,3R,4R)-2,3-dihydroxy-4-(hydroxymethyl)cyclopentylamino)-2-(6-(methylsulfonyl)-2,6-diazaspiro[3.3]heptan-2-yl)pyrimidin-4(3H)-one.HCl]	5.6 nM	–
O=c1[nH]c(N2CCN(c3ccc(Cl)cn3)CC2)nc(N[C@@H]2CCCNC2)c1-c1nc2ccccc2s1 [Example 144, (R)-5-(benzo[d]thiazol-2-yl)-2-(4-(5-chloropyridin-2-yl)piperazin-1-yl)-6-(piperidin-3-ylamino)pyrimidin-4(3H)-one]	–	IC50 (read-out: IRAK4 IC50): 8 nM
O=c1[nH]c(N2CCCC2c2ccncc2)nc(N[C@@H]2CCCNC2)c1-c1ccc2ccccc2n1 (stereo partly drawn) [Example 182, 6-((R)-piperidin-3-ylamino)-2-(2-(pyridin-4-yl)pyrrolidin-1-yl)-5-(quinolin-2-yl)pyrimidin-4(3H)-one]	–	IC50 (read-out: IRAK4 IC50): 3180 nM
O=c1[nH]c(Nc2ccncc2)nc(N[C@@H]2C[C@H](CO)[C@@H](O)[C@H]2O)c1-c1nc2ccccc2s1 [Example 54, 5-(Benzo[d]thiazol-2-yl)-6-((1R,2S,3R,4R)-2,3-dihydroxy-4-(hydroxymethyl)cyclopentylamino)-2-(pyridin-4-ylamino)pyrimidin-4(3H)-one.HCl]	654 nM	–
CC(C)Nc1nc(N[C@@H]2C[C@H](CO)[C@@H](O)[C@H]2O)c(-c2nc3ccccc3s2)c(=O)[nH]1 [Example 5, 5-(Benzo[d]thiazol-2-yl)-6-((1R,2S,3R,4R)-2,3-dihydroxy-4-(hydroxymethyl)cyclopentylamino)-2-(isopropylamino)pyrimidin-4(3H)-one.HCl]	151 nM	–
CN(Cc1ccccc1)c1nc(N[C@@H]2CCCNC2)c(-c2nc3ccccc3s2)c(=O)[nH]1 [Example 307, 5-(1,3-benzothiazol-2-yl)-2-[benzyl(methyl)amino]-6-[[(3R)-piperidin-3-yl]amino]-3,4-dihydropyrimidin-4-one dihydrocbloride]	–	IC50 (read-out: IC50): 310 nM
CC(=O)NCCNc1nc(N2CCOCC2)[nH]c(=O)c1-c1nc2ccccc2s1 [Example 261, N-(2-[[5-(1,3-benzothiazol-2-yl)-2-(morpholin-4-yl)-6-oxo-1,6-dihydropyrimidin-4-yl]amino]ethyl)acetamide]	–	IC50 (read-out: IC50): 8200 nM
O=c1[nH]c(N2CCOCC2)nc(N[C@@H]2CCCNC2)c1-c1cccc(-n2cccc2)n1 [Example 215, (R)-5-(6-(1H-pyrrol-1-yl)pyridin-2-yl)-2-morpholino-6-(piperidin-3-ylamino)pyrimidin-4(3H)-one]	–	IC50 (read-out: IC50): 185 nM
O=c1[nH]c(N[C@H]2c3ccccc3C[C@H]2O)nc(N[C@@H]2CCCNC2)c1-c1nc2ccccc2s1 [Example 298, 5-(1,3-benzothdazol-2-yl)-2-[[(1S,2R)-2-hydroxy-2,3-dihydro-1H-inden-1-yl]amino]-6-[[(3R)-piperidin-3-yl]amino]pyrimidin-4-ol; formic acid]	–	IC50 (read-out: IC50): 2500 nM
CS(=O)(=O)c1cc(F)ccc1N1CCN(c2nc(N[C@@H]3CCCNC3)c(-c3nc4ccccc4s3)c(=O)[nH]2)CC1 [Example 150, (R)-5-(benzo[d]thiazol-2-yl)-2-(4-(4-fluoro-2-(methylsulfonyl)phenyl)piperazin-1-yl)-6-(piperidin-3-ylamino)pyrimidin-4(3H)-one]	–	IC50 (read-out: IRAK4 IC50): 14 nM
O=c1[nH]c(N2CCOCC2)nc(NC2CNC2)c1-c1ccc2ccccc2n1 [Example 275, 6-[(azetidin-3-yl)amino]-2-(morpholin-4-yl)-5-(quinolin-2-yl)-3,4-dihydropyrimidin-4-one]	–	IC50 (read-out: IC50): 150 nM
Cc1cccc(-c2c(N[C@@H]3C[C@H](CO)[C@@H](O)[C@H]3O)nc(N3CCCCC3)[nH]c2=O)n1 [Example 35, 6-(((1R,2S,3R,4R)-2,3-Dihydroxy-4-(hydroxymethyl)cyclopentyl)amino)-5-(6-methylpyridin-2-yl)-2-(piperidin-1-yl)pyrimidin-4(3H)-one.HCl]	296 nM	–
CN1CCC2CCN(c3nc(N[C@@H]4CCCNC4)c(-c4ccc5ccccc5n4)c(=O)[nH]3)C2C1 (stereo partly drawn) [Example 185, 2-(6-methyloctahydro-1H-pyrrolo[2,3-c]pyridin-1-yl)-6-((R)-piperidin-3-ylamino)-5-(quinolin-2-yl)pyrimidin-4(3H)-one]	–	IC50 (read-out: IRAK4 IC50): 851 nM
O=c1[nH]c(N2CC[C@H](F)C2)nc(N[C@@H]2CCCNC2)c1-c1ccc2ccccc2n1 [Example 177, 2-((S)-3-fluoropyrrolidin-1-yl)-6-((R)-piperidin-3-ylamino)-5-(quinolin-2-yl)pyrimidin-4(3H)-one]	–	IC50 (read-out: IRAK4 IC50): 13 nM
O=c1[nH]c(N2CCn3cc(C(F)(F)F)nc3C2)nc(N[C@@H]2CCCNC2)c1-c1nc2ccccc2s1 [Example 140, (R)-5-(benzo[d]thiazol-2-yl)-6-(piperidin-3-ylamino)-2-(2-(trifluoromethyl)-5,6-dihydroimidazo[1,2-a]pyrazin-7(8H)-yl)pyrimidin-4(3H)-one]	–	IC50 (read-out: IRAK4 IC50): 113 nM
O=c1[nH]c(N2CCN(c3cccnc3)CC2)nc(N[C@@H]2CCCNC2)c1-c1nc(-c2ccc(F)cc2)cs1 [Example 349, 5-[4-(4-fluorophenyl)-1,3-thiazol-2-yl]-6-[[(3R)-piperidin-3-yl]amino]-2-[4-(pyridin-3-yl)piperazin-1-yl]-3,4-dihydropyrimidin-4-one]	20 nM	–
O=c1[nH]c(N2CCC(n3ccnn3)CC2)nc(N[C@@H]2C[C@H](CO)[C@@H](O)[C@H]2O)c1-c1nc2ccccc2s1 [Example 67, 2-(4-(1H-1,2,3-triazol-1-yl)piperidin-1-yl)-5-(benzo[d]thiazol-2-yl)-6-((1R,2S,3R,4R)-2,3-dihydroxy-4-(hydroxymethyl)cyclopentylamino)pyrimidin-4(3H)-one]	–	IC50 (unit inferred, read-out: IRAK4 IC50): 11.8 nM
